Results from patent US6787318B1, “Assay for evaluating the therapeutic effectiveness of agents in reducing Alzheimer's disease pathology” (Roskamp Research Institute, LLC, priority 1999, dated 2004).
“Also recorded” adds a separate entry of the source.

Assays:
IFN-γ = IFN-γ secretion from HAEC, ELISA; assay type: cell-based, human
Procedure: (§1) The assay for either IL-1β or IFN-γ was performed in strict accordance with the manufacturer's instructions for the respective assay kits.
(§2) Activation of CD40 signalling can be achieved by stimulation with either CD40L or certain anti-CD40 mAbs. Since synthetic CD40L is not commercially available, one of the anti-CD40 mAbs (clone 3/23), which has been reported to activate CD40 signalling, was used to mimic the effect of interaction of CD40-CD40L. All Aβ-treated cells were incubated with 1 μg/ml anti-CD40 mAb […]) for four hours followed by CELISA.
(§3) The resulting cell culture media were assayed for IL-1β or IFN-γ using ELISA. […] The lowest effective concentration was determined to be 100 nM for IFN-γ ([…]). The lowest effective concentration was determined to be 100 nM for IFN-γ (p<0.01) and 1 μM for IL-1β (p<0.01).

CD40 [1] = test: CD40 protein in cultured HAEC, Western immunoblotting; assay type: cell-based, human; details: Aβ 5 μM, IFN-γ 100 U/mL, 48 hours
Procedure: Cultured HAEC were plated at 1×10^6 cells/well in 100 mm culture dishes (Falcon, Becton Dickinson Inc. New Jersey). […] Cells were washed in ice-cold phosphate buffered saline (PBS) three times and lysed in an ice-cold lysis buffer containing 0.2 mM EDTA, 20 mM Tris/HCl (pH 8.0), 100 mM NaCl, 3% Nonidet P-40, 50 mM NaF, 10 mM sodium pyrophosphate, 2 mM orthovanadate, 10 μg/mL each of aprotinin and leupeptin and 1 mM PMSF. After incubation for thirty minutes on ice, samples were centrifuged at 15,000 rpm for fifteen minutes, and supernatants were collected. Total protein content was estimated using the Bio-Rad protein assay. An aliquot corresponding to 50 μg of total protein of each sample was separated by SDS-PAGE and transferred electrophoretically to Hy-bond PVDF membranes (Bio-Rad, California). Nonspecific antibody binding was blocked overnight at 4° C. with 5% non-fat dry milk in TBS (20 mM Tris, 500 mM NaCl, pH 7.5). […] Blots were also carried out on identical membranes with a reference anti-actin mouse monoclonal antibody (Boehringer Mannhem), which allowed for semi-quantitative CD40 protein determination. Densitometric analysis was performed for protein bands using the Fluor-S™ MultiImager with Quantity One™ software (Bio-Rad, California).

CD40 [2] = test: CD40 expression in HAEC, cell-ELISA (CELISA); assay type: cell-based, human; details: for expression of CD40 on cytokine treatment: recombinant human cytokine
Procedure: (§4) In vitro measurement of Aβ-induced changes in expression of the inflammatory cell-surface molecules CD40 and […] in cultured HAEC and HASM cells was performed using a slightly modified ABC-based cell-ELISA (CELISA). […] After PBS washes, 4% neutral formalin solution (Sigma) was used for fixation of the cells. Following quenching of the endogenous peroxidase activity with 3% H2O2 and routine blocking of non-specific binding, the biotinylated specific secondary antibodies against the primary antibodies (goat anti-mouse or anti-rabbit IgG) were applied. The combination of EXTRAVIDIN® Proxidase and the subsequent color reaction was performed strictly according to the manufacturer's instructions in the EXTRAVIDIN® Peroxidase Staining Kit (Sigma). The absorbance of 405 nm was then measured using a microplate reader (SPECTRAmax 250, Molecular Devices). The optical density (O.D.) value for the wells in the absence of the primary antibody for each group was considered as background and subtracted as the blank. In addition, stimulation with IFN-γ for CD40 was included as a positive control in the appropriate plate. Since CD45 is not expressed by endothelial or smooth muscle cells, the assays for expression of CD45 in these Aβ-treated cells were used as negative controls throughout the experiment. In addition, to evaluate the degree of cell death or proliferation in the Aβ-treated, cells, parallel experiments were performed using the MTS (3-(4,5-dimethylthiazol-2-yl)-5-(3-carboxymethoxyphenyl)-2-(4-sulfophenyl)-2H-tetrazolium) cell-proliferation kit (Promega).

IL-1β [3] = test: IL-1β secretion from HAEC, ELISA; assay type: cell-based, human
Procedure: as §1, §3

CD40 [4] = test: CD40 cell-surface expression on HAEC, flow cytometry; assay type: cell-based, human; details: Aβ 500 nM, IFN-γ 10 U/mL; vs control peptide or Aβ-free
Procedure: Cultured HAEC were treated as described above. […] Cells were analyzed on a FACScan flow cytometer (Becton-Dickinson, Mountain View, Calif.) using LYSIS-II software. CD40-expressing cells are defined as percentage of CD40-staining cells minus the percentage of IgG1-staining cells.
CD40 expression between control peptide-treated and Aβ-free AEC was relatively similar.

IL-1β [5] = test: Human IL-1β release ELISA, HAEC with or without CD40 ligation; assay type: cell-based; details: for IL-1β release following CD40 ligation: 48 hour pre-treatment, then CD40L for eight hours; for IL-1β release in the absence of CD40L stimulation: Aβ 500 nM, IFN-γ 10 U/mL, 48 hours
Procedure: To examine if endothelial CD40 would be functional, cultured HAEC were plated at 5×10^4 cells/well in 6-well tissue culture plates (Nunc-Immuno™ Plate, Denmark) and incubated at 37° C. with human CD40L recombinant protein (CD40L, 0.5 ug/mL, kindly provided by Dr. Jean-Yves Bonnefoy, Glaxo Institute for Molecular Biology, Geneva) in fresh cultured media for eight hours, and cell-free supernatants were collected for IL-1β release assay. The assay for human IL-1β was performed in strict accordance with the manufacturer's instruction using the human Predicta™ IL-1β Kit (Genzyme). Absorbance at 450 nm was measured using a microplate spectrophotometer (SPECTRAmax 250, Molecular Devices, Sunnyvale, Calif.).
A second group of cells was subjected to these same treatments and incubated with CD40L ([…]) for eight hours following the initial 48 hour treatment period. IL-1β release was then quantified using a human IL-1β ELISA kit as described in materials and methods.

CD40 [6] = test: CD40 cell ELISA on cultured HAEC; assay type: cell-based, human; details: Aβ 50 nM to 10,000 nM; IFN-γ 5 to 500 U/mL; 48 hours
Procedure: To determine if CD40 expression on cultured HAEC was IFN-γ or Aβ dose-dependent, CD40 cell ELISA assays were performed according to published procedures. Briefly, cultured HAEC were plated at 2×10^4 cells/well in flat-bottom, 96-well tissue culture plates (Nunc-Immuno™ Plate, Denmark). […] Other HAEC were treated with a dose range (5 U/mL to 500 U/mL) of IFN-γ. […] Forty-eight hours post-treatment, plates were fixed overnight at 4° C. in 1% paraformaldehyde diluted in 1×PBS, washed three times with wash buffer (0.5% Tween 20 in 1×PBS), and subsequently incubated with […] of blocking buffer (10% fetal bovine serum in wash buffer) for one hour at 37° C. Cells were then treated with purified anti-human CD40 antibody ([…], PharMingen, Los Angeles, Calif.) in […] of blocking buffer for one hour at 37° C. Plates were washed four times with wash buffer. Biotinylated anti-mouse IgG1 (PharMingen, Los Angeles, Calif.; 1:2,000 dilution in blocking buffer, […]) was added and incubated for one hour at 37° C., followed by the addition of […] of a 1:3,000 dilution of HRP-Streptavidin (ZYMED, San Francisco, Calif.) for thirty minutes at 37° C. Plates were washed 4× with wash buffer and developed for twenty minutes at room temperature using the 3, 3′, 5, 5′-tetramethylbenzidine (TMB) one-step substrate system (DAKO, Carpinteria, Calif.) followed by the addition of 100 μL/well of 2N H2SO4 to stop the reaction. Absorbance was measured at 450 nm using a microplate spectrophotometer (SPECTRAmax 250, Molecular Devices, Sunnyvale, Calif.).

IFN-γR [7] = test: IFN-γR expression in HAEC, cell-ELISA (CELISA) and Western blotting; assay type: cell-based, human; details: for expression of IFN-γR on cytokine treatment: recombinant human cytokine
Procedure: as §4, §2
The total protein was estimated using the Bio-Rad protein assay. An aliquot corresponding to 100 μg of total protein of each sample was separated by SDS/PAGE (polyacrylamide gel electrophoresis) and transferred electrophoretically to PVDF filters. Non-specific binding of antibody was blocked with 5% non-fat dry milk, in 20 mM Tris/HCl, pH 7.5/150 mM NaCl/0.1% Triton X-100. Immunoblotting was carried out with the appropriate antibody followed by alkaline phosphatase-conjugated secondary anti-immunoglobulin antibodies. These were then developed by the chemiluminescence method (Bio-Rad).

HAEC [8] = test: Cytotoxicity in HAEC, LDH release assay; assay type: cell-based, human; details: 500 nM, 48 hours
Procedure: Previous reports have shown that overexpression of amyloid precursor protein or exogenous addition of Aβ peptides can have cytotoxic effects on cultured endothelial cells.
In order to determine if ligation of endothelial CD40 could result in production of pro-inflammatory cytokines, IL-1β was measured following treatment with IFN-γ or Aβ peptides. […] There was not observe a significant induction of endothelial cell death by LDH release assay between treatment groups during the time course examined by IL-1β release assay (by One-way ANOVA, F(6,41)=0.322, p=0.921), supporting the hypothesis that stimulation of the CD40 pathway in endothelial cells results in an early pro-inflammatory cascade which later promotes cell injury, rather than induce cytotoxicity acutely.

HAEC [9] = test: MTS cell death/proliferation in Aβ-treated HAEC; assay type: cell-based, human; details: 10 or 20 μM
Procedure: as §4, with “In addition, to evaluate the degree of cell death or proliferation in the Aβ-treated, cells, parallel experiments were performed using the MTS (3-(4,5-dimethylthiazol-2-yl)-5-(3-carboxymethoxyphenyl)-2-(4-sulfophenyl)-2H-tetrazolium) cell-proliferation kit (Promega).” left out

CD40 [10] = test: CD40 expression in Aβ-treated N9 and N60 microglial cells, flow cytometry; assay type: cell-based, murine
Excerpt: Mononuclear cells from AD patients secrete markedly higher levels of IFN-γ compared to age-matched controls (18).

IFN-γR [11] = test: IFN-γR expression in HASM cells, cell-ELISA (CELISA); assay type: cell-based, human
Procedure: as §4, §2

neurons = details: exogenous, at levels similar to those produced by activated microglia; cited from earlier work
cortical neurons = test: Cortical neurons incubated with treated N9 microglia, photomicrographs; assay type: cell-based, murine; details: Aβ1-42 250 nM, CD40L 0.5 μg/ml
TNF-α = TNF-α release from cultured microglia, TNF-α ELISA; assay type: cell-based, mice; details: microglia pre-treated with 500 nM Aβ1-42
[12] = system: primary cultured cortical neurons; test: Primary cultured microglia-mediated neuronal cell injury (micrographs, 51Cr release, LDH release); assay type: cell-based, mice; details: primary cultured microglia with cortical neurons
Excerpt: CD45 positive cells (brown) are microglia, while neurofilament L-staining cells (red) are neurons. […] Results shown are from one of three independent experiments with similar results; FIG. 2E is a graph showing primary cultured microglia-mediated neuronal cell injury as evidenced by ^51Cr release. Data are reported as mean ^51Cr release values±1 SEM and n=9 for each condition presented. […] N=9 for each condition presented.
Having shown that Aβ peptides activate microglia through the CD40 pathway, it was then investigated whether activation of Aβ-pretreated microglia by ligation of CD40 could mediate neuronal cell injury (23,24).

[13] = increasing concentrations, 24 hours

## Aβ1-40: amyloid β peptide 1-40, freshly solubilized
IFN-γ; 20 μM, vs control
  IFN-γ production at largest dose: does induce a significant production of IFN-γ
IFN-γ; [13]
  IFN-γ secretion, dose dependence: does not show a dose-dependent effect
CD40 [1]
  increase in CD40 expression vs control peptide or Aβ-free, Western: ~2 fold
CD40 [2]
  CD40 expression in HAEC, dose dependence: dose-dependently increase CD40 expression
CD40 [2]; HAEC
  lowest effective concentration for CD40 expression: 10 µM
IL-1β [3]; 20 μM
  IL-1β secretion at largest dose: has no effect
IL-1β [3]; [13]
  IL-1β secretion, dose dependence: does not show a dose-dependent effect
CD40 [4]
  CD40 cell-surface expression, flow cytometry: significantly induce CD40 expression
IL-1β [5]
  IL-1β release following CD40 ligation: synergistic effect
  IL-1β release in the absence of CD40L stimulation: not sufficient to elicit IL-1β
CD40 [6]
  dose dependence of endothelial CD40: marked increase in endothelial CD40 which is dose-dependent
IFN-γR [7]; 48 hours
  IFN-γR expression in HAEC: neither Aβ1-40 nor Aβ25-35 modulate the IFN-γR expression
HAEC [8]
  cell injury, LDH release: no significant induction of cell injury
HAEC [9]
  cell death, MTS assay, HAEC: significant amount of cell death
CD40 [10]; 250 nM freshly solubilized peptide, N9 and N60 cells, vs control peptide or Aβ-free
  CD40 expression on cultured microglial cells: significantly induce CD40 expression
IFN-γR [11]; 48 hours
  IFN-γR expression in HASM cells: induces a significant effect on IFN-γR
IFN-γR [11]; Aβ-treated cells, 1 μg/ml mAb, four hours
  IFN-γR expression in HASM cells on CD40 ligation by mAb (3/23): synergistic

## TNF-α
neurons
  neuronal injury and death, LDH release: dose-dependently induces neuronal injury and death

## IL-1β: recombinant human cytokine
CD40 [2]
  expression of CD40 on cytokine treatment: up-regulate the expression of CD40 and IFN-γR
IFN-γR [7]
  expression of IFN-γR on cytokine treatment: up-regulate the expression of CD40 and IFN-γR

## IFN-γ: Human IFN-γ recombinant protein (Genzyme)
CD40 [1]
  increase in CD40 expression vs control peptide or Aβ-free, Western: ~2.5 fold
CD40 [2]
  expression of CD40 on cytokine treatment: up-regulate the expression of CD40 and IFN-γR
CD40 [4]
  CD40 cell-surface expression, flow cytometry: significantly induce CD40 expression
IL-1β [5]
  IL-1β release following CD40 ligation: synergistic effect; also recorded: more pronounced than Aβ's effect
  IL-1β release in the absence of CD40L stimulation: not sufficient to elicit IL-1β
CD40 [6]
  dose dependence of endothelial CD40: dose-dependent induction of endothelial CD40
IFN-γR [7]
  expression of IFN-γR on cytokine treatment: up-regulate the expression of CD40 and IFN-γR
CD40 [10]; low dose 10 U/mL, Aβ-challenged microglia
  effect of cytokine on Aβ-dependent CD40 expression: synergistically enhances Aβ-dependent CD40 expression

B1: CD40L: human CD40L recombinant protein (protein)
chain: ENSFEMQKGDQNPQIAAHVISEASSKTTSVLQWAEKGYYTMSNNLVTLENGKQLTVKRQGLYYIYAQVTFCSNREASSQAPFIASLCLKSPGRFERILLRAANTHSSAKPCGQQSIHLGGVFELQPGASVFVNVTDPSQVSHGTGFTSFGLLKL
Cortical neurons
  change in cortical neurons: no change in cortical neurons
TNF-α
  TNF-α release on addition of CD40L: synergistically increases TNF-α release
[12]
  neuronal degeneration / injury in micrographs: not detectable
IL-1β [5]; CD40L and Aβ-free condition
  IL-1β release: approximately 50 pg/mg total protein
